Data taken from PubChem BioAssay AID1996.
In brackets after ≈: the same amount, converted by molar mass.

Settings: buffer; pH 7.4; 200.0 µM

Row | Structure (SMILES) | solubility kinetic [µg/mL]
1 | Cc1ccc(C(=O)NCCNC(=O)COc2ccc(Cl)cc2)cn1 | > 52.2
2 | CC(C)CCN1CCN(Cc2ccc(C(F)(F)F)cc2)CC1CCO (centres undefined) | > 53.8
3 | CC(=O)c1cc(C)ccc1OC(=O)c1ccncc1 | 35.8 (≈ 140 µM)
4 | CCCCc1c(O)nc(SCC(=O)N2CCCCCC2)[nH]c1=O | 48.9 (≈ 144 µM)
5 | Cc1ccc(Nc2c3c(nc4ccccc24)CCC3)cc1.Cl | 33.4
6 | CN(CC(=O)Nc1cccc2ccccc12)C(=O)c1ccc(NC(=O)CC#N)cc1 | > 60.1
7 | Cc1ccc(C2=NOC(=O)/C2=C\c2ccc(C)o2)cc1 | 36.3 (≈ 136 µM)
8 | CN(Cc1ccccc1)C(=O)COC(=O)Cc1ccc(Cl)cc1 | 46.3 (≈ 140 µM)
9 | O=C(OCC(=O)N1CCCc2ccccc21)c1cc(Cl)ccc1O | 3.4 (≈ 9.83 µM)
10 | COc1ccccc1N1CN(Cc2ccccc2)CNC1=S | > 47
11 | S=c1nc(C2CCCCC2)[nH]c2ccccc12 | 0.5 (≈ 2.05 µM)
12 | Cn1c(=S)n(C)c2ccccc21 | > 26.7
13 | CN(C)C(=O)c1cc(C(=O)c2ccc(F)cc2F)c[nH]1 | > 41.7
14 | CC1CN=C(NC(=O)c2cccc([N+](=O)[O-])c2)S1.Cl (centres undefined) | 12.5
15 | CSc1nc2nc3c(cc2c(=O)n1-c1cccc(C)c1)COC(C)(C)C3 | 2.6 (≈ 7.08 µM)
16 | CC(=O)c1ccc(OCc2ncc(C(F)(F)F)cc2Cl)cc1 | 23.6 (≈ 71.6 µM)
17 | O=C(c1ccc(Br)cc1)N1CCN(c2ncccn2)CC1 | 44.6 (≈ 128 µM)
18 | Cc1cc(C)c(SCCc2ccncc2)c(C)c1 | 3.1 (≈ 12 µM)
19 | Cn1c(C(=O)N2CCOCC2)cc2c(=O)n3ccccc3nc21 | > 46.8
20 | CN(C)C(Cc1ccccc1)C(=O)c1c[nH]c2ccccc12.Cl (centres undefined) | > 49.3

Row | Structure (SMILES) | solubility kinetic [µg/mL]
21 | Cc1cc(Cl)ccc1OCCCC(=O)NCc1ccccn1 | > 47.8
22 | CCc1c(C)nc(N2CCN(c3ccccc3)CC2)[nH]c1=O | 8.8 (≈ 29.5 µM)
23 | COc1cccc(-c2cc(C(=O)NC3CCCC3)c3ccccc3n2)c1 | 1.3 (≈ 3.75 µM)
24 | O=C(c1ccccc1)c1ccc(C(=O)N2CCN(c3ccc(O)cc3)CC2)cc1 | 47.4 (≈ 123 µM)
25 | Cc1ccc(NC(=O)N2CCC(NC(=O)c3ccco3)CC2)cc1 | > 49.1
26 | N#Cc1c(-c2ccccc2)nc(SCc2ccc(Cl)cc2)[nH]c1=O | 51.9 (≈ 147 µM)
27 | CCCCNC(=O)c1cc2cc(OC)ccc2[nH]1 | 15.4 (≈ 62.5 µM)
28 | CN(CC(=O)Nc1ccc(F)c(F)c1F)C(=O)/C=C/c1ccco1 | > 50.7
29 | COc1ccc(-c2cnc3n2CCCCC3)cc1 | > 36.3
30 | O=C(O)CC1(CC(=O)NCc2ccncc2)CCCCC1 | > 43.6
31 | CCOc1cccc(C(=O)Nc2ccc3oc(-c4cccnc4)nc3c2)c1 | < 0.3
32 | O=C(COc1ccccc1Cl)NCc1ccccc1 | 20.6 (≈ 74.7 µM)
33 | CC(=O)c1ccc(NC(=O)C(C)Sc2nnc(-c3ccncc3)n2C2CC2)cc1 (centres undefined) | > 61.1
34 | Cc1cccc(NCc2ccc(Br)cc2)n1 | 12 (≈ 43.3 µM)
35 | Cc1nc(Cl)c(C(=O)NCCc2ccccc2)c(C)c1[N+](=O)[O-] | 3.5 (≈ 10.5 µM)
36 | COc1nc(N)nc2nc[nH]c12 | > 24.8
37 | COc1ccccc1Nc1c2ccccc2nc2ccccc12 | 35.5 (≈ 118 µM)
38 | Cc1ccccc1NC(=O)CCN1CCN(C)CC1 | > 39.2
39 | O=C(COC(=O)c1ccccc1C(F)(F)F)NC(=O)NCc1ccco1 | 19.5 (≈ 52.7 µM)
40 | Cc1ccc(C(=O)OCC(=O)N2C(C)CCCC2C)s1 (centres undefined) | 28.2 (≈ 95.5 µM)

Row | Structure (SMILES) | solubility kinetic [µg/mL]
41 | COc1ccc(S(=O)(=O)N2CCOCC2)cc1NC(=O)CC(C)c1ccccc1 (centres undefined) | 9.9 (≈ 23.7 µM)
42 | CCOc1cccc(C(=O)NC(c2ccccc2)C(C)C)c1 (centres undefined) | 5.1 (≈ 17.1 µM)
43 | O=C(/C=C\c1ccccc1)Oc1cccc2cccnc12 | 17.3 (≈ 62.8 µM)
44 | CC1CCCN(S(=O)(=O)c2ccc(Cl)s2)C1 (centres undefined) | 10.8 (≈ 38.6 µM)
45 | O=C(CN1CCCCCC1)Nc1ccc(Br)cn1 | 33.7 (≈ 108 µM)
46 | CN(c1ccccc1)c1ccc([N+](=O)[O-])c2nonc12 | 2.1 (≈ 7.77 µM)
47 | C/C=C/c1ccc(OCC(=O)Nc2ccncc2)c(OC)c1 | 42.1 (≈ 141 µM)
48 | CC1CC(=O)Nc2ccccc2N1C(=O)CN1C(=O)C(=O)N(C)C1=O (centres undefined) | > 51.6
49 | CN1CCN(CC(=O)N2c3ccccc3Sc3ccccc32)CC1 | > 50.9
50 | CCOC(=O)COc1nc(-c2ccccc2)cc(-c2ccco2)c1C#N | < 0.4
51 | O=C(O)/C=C\C(=O)Nc1cc(O)ccc1[N+](=O)[O-] | > 37.8
52 | CCN(CCS(=O)(=O)c1ccc(Br)cc1)Cc1nc2ccccc2c(=O)[nH]1 | 9.3 (≈ 20.7 µM)
53 | COc1cccc(OC)c1C(=O)NCCc1ccccc1 | > 42.8
54 | Cc1ccc2c(c1)=C/C(=C\c1c(O)[nH]c(=O)[nH]c1=O)C(=O)N=2 | < 0.2
55 | COc1ccc(C(=O)O/N=C(\N)c2ccccn2)c(OC)c1 | > 45.2
56 | O=C(COC(=O)c1ccc(Cl)nc1)Nc1cc(S(=O)(=O)N2CCOCC2)ccc1Cl | 50.6 (≈ 107 µM)
57 | O=C(c1cccc([N+](=O)[O-])c1)c1ccc2c(c1)OCCOCCOCCO2 | > 56
58 | CCC1(OC(=O)c2ccccc2)CC(C)N(C)CC1C.Cl (centres undefined) | 30.3
59 | C=CCNC(=S)N1CCC(C(=O)c2ccc(Cl)cc2)CC1 | 43.5 (≈ 135 µM)
